Reference: publication PMC6048268, “Resveratrol Inhibits Key Steps of Steroid Metabolism in a Human Estrogen-Receptor Positive Breast Cancer Model: Impact on Cellular Proliferation” (Frontiers in Pharmacology, 2018)
Read-outs that look alike come from different tables or passages of the source.

Experiments:
[1] = molecular target: estrogen sulfation, S9 fractions from human jejunum; parameters: method as in Furimsky et al. (2008); settings: ref Furimsky et al. (2008), read-out: Ki, inhibition of estrogen sulfation; cited from earlier work
SULT1A1 mRNA = experiment: Real-time PCR, SULT1A1 mRNA expression in MCF-7 cells; format: cell-based, human; settings: 10 μM RES; for down-regulation of SULT1A1 mRNA: non-significant
Description: MCF-7 breast cancer cells were seeded in 6-well plates at a density of 1.0 × 10^6 cells per well and allowed to attach overnight. […] Expression profiling of genes of interest was performed as detailed previously ([Mechtcheriakova et al., 2007]; [Meshcheryakova et al., 2016]). Upon treatment, total RNA was isolated using peqGOLD TriFAST^TM reagent (VWR, Vienna, Austria) according to the manufacturer’s protocol. 1 μg RNA was used for cDNA generation using the High Capacity cDNA Reverse Transcription Kit (Thermo Fisher Scientific, Inc.) according to the instructions of the manufacturer. Real-time PCR analysis was performed in the 96-well plate format on a QuantStudio 12K Flex Real-Time PCR System (Thermo Fisher Scientific, Inc.). SULT1A1 and SULT2A1 were detected using the corresponding TaqMan Assays (Thermo Fisher Scientific, Inc.). […] HKGs primers were self-designed using the Primer Express 3.0 software (Thermo Fisher Scientific, Inc.) and validated using the Human Total RNA Master Panel (TaKaRa Bio, Inc., Saint-Germain-en-Laye, France), as described before ([Mechtcheriakova et al., 2007], [2011]); Primers: UBC forward: […]; UBC reverse: […]; GAPDH forward: […]; GAPDH reverse: […]; ACTB forward: […]; ACTB reverse: […]. For relative quantification, data were analyzed by applying the ΔΔCT method. Expression levels of target genes were normalized to the average of the HKGs and shown relative to unstimulated cells (0 h time-point).

E2 levels = tested on: E2 levels; parameters: method as in El-Sayed and Bayan, 2015; settings: mice, 4 mg/kg i.p. for 7 days; ref El-Sayed and Bayan, 2015; cited from earlier work
MCF-7 cells = experiment: Cell proliferation, Casy cell counting, MCF-7; format: cell-based, human
Description: MDA-MB-231 and MCF-7 breast cancer cells were purchased from the American Type Culture Collection (ATCC; Manassas, VA, United States) and routinely cultivated at 37°C (95% humidity and 5% CO2) in phenolred-free Dulbecco’s modified Eagle medium F-12 (DMEM/F-12), fortified with 1% PenStrep®-solution and 10% fetal bovine serum (Invitrogen; Thermo Fisher Scientific, Inc., Waltham, MA, United States). All experiments were performed during the exponential growth phase of both cell lines. For the experiments, cells were seeded in 6-well-plates at a density of 1.0 × 10^6 cells per well and allowed to attach for 24 h.
Prior to cell counting with a Casy® TT Cell Counter (OLS OMNI Life Science, Bremen, Germany), the supernatant medium was removed and cells were detached using 400 μl TrypLe® solution (Invitrogen). All experiments were performed in triplicate, and the data were reported as the means ± standard deviation of all values.

[2] = tested on: steroid metabolism in MCF-7 cells; experiment: Inhibition of steroid metabolism by RES in MCF-7 cells (LC–HRMS); settings: for inhibition at 10 µM: Homo sapiens, MCF7, 48 h; for Ki: MCF-7, Dixon plot
Description: Briefly, cartridges were preconditioned with 2 × 1.0 ml acetonitrile and 3 × 1.0 ml ammonium acetate buffer (10 mM, pH = 5.0), and the samples were loaded onto the columns. After washing with 1 × 1.0 ml ammonium acetate buffer (10 mM, pH = 5.0) and 2 × 1.0 ml acetonitrile/ammonium acetate buffer (10 mM, pH 5.0) 10:90 (v/v), the analytes were eluted using 2 × 650 μl acetonitrile/ammonium acetate buffer (10 mM, pH = 5.0) 95:5 (v/v) and evaporated until dry. Subsequently, samples were reconstituted in 270 μl acetonitrile/ammonium acetate buffer (10 mM, pH = 5.0) 25:75 (v/v) and stored at -80°C until further LC–HRMS analysis.
After media collection, cell monolayers were washed five times with 2.0 ml DPBS, detached using 400 μl TrypLE® solution (37°C, 5 min), mixed with 600 μl DPBS and transferred into sample vials. Aliquots of these suspensions (100 μl each) were diluted and counted using the Casy® TT Cell Counter to determine the exact number of cells per sample well. The remaining cell suspensions (900 μl each) were gently centrifuged (1000 rpm, 8 min), and the supernatants were discarded. The cell pellets were subsequently resuspended in 100 μl aqueous ammonium acetate buffer (10 mM, pH = 5.0) and lysed by five freeze-thaw-cycles in liquid nitrogen (3 min each), followed by thawing at ambient temperature. Ammonium acetate buffer (1000 μl) was added, and the suspensions were centrifuged (14000 rpm, 5 min). Subsequently, the supernatants were concentrated using the same SPE protocol as described above. All processed samples were then stored at -80°C until further LC–HRMS analysis. For each condition, three biologically independent experiments were performed; the reported values represent the overall means ± SD of all values.
LC was performed with an UltiMate 3000 RSLC-series system coupled to a maXis HD ESI-Qq-TOF mass spectrometer (Bruker Corporation, Bremen, Germany). A Phenomenex Luna® 3 μm C18(2) 100 Å LC column (250 mm × 4.6 mm I.D.; Phenomenex, Inc., Torrance, CA, United States), preceded by a Hypersil® BDS-C18 guard column (5 μm, 10 mm × 4.6 mm I.D.; Thermo Fisher Scientific, Inc.) was used for the separation of the analytes at a flow rate of 1.0 ml/min and a temperature of 43°C. […] The ESI ion source settings were as follows: capillary voltage: -4.5 kV; dry gas flow rate: 8.0 l/min N2; nebulizer: 1.0 bar N2; and dry temperature: 200°C. The ion transfer parameters were set to 400 Vpp funnel RF and 300 Vpp multipole RF, the quadrupole ion energy was 8.0 eV, and the collision cell parameters were as follows: collision RF, 1100 Vpp; collision energy, 10.0 eV; transfer time, 38 μs; and pre-pulse storage, 18 μs. In the range of m/z 150–500, full-scan mass spectra were recorded.
The modes of inhibition were subsequently determined from Lineweaver–Burk plots, and the corresponding Ki values were calculated from Dixon plots using GraphPad Prism 6.0.

[3] = MCF-7, 100 μM RES, 100 nM DHEA, 48 h
[4] = MCF-7, 100 μM RES, 100 nM E1, 48 h

Oc1ccc(/C=C/c2cc(O)cc(O)c2)cc1 [RES, 3,5,4′-trihydroxy-trans-stilbene]
Ki [1]: 0.6 µM
down-regulation of SULT1A1 mRNA (SULT1A1 mRNA; 24 h): 23.6 ± 13.0%
down-regulation of SULT1A1 mRNA (SULT1A1 mRNA; 48 h): 30.4 ± 11.0%
effect on transcription of SULT1A1 (SULT1A1 mRNA; up to 4 h): did not affect
increase in E2 levels (E2 levels): approximately twofold increase
increase in cell counts on co-incubation (MCF-7 cells; 5 μM RES + 100 nM E1, 48 h, vs control without E1): twofold increase in cell counts
cell number (MCF-7 cells; 5 μM RES, 48 h): 2.92 ± 0.16 × 10^6 cells
effect on cellular proliferation (MCF-7 cells; 10 μM RES, 48 h): no effect
cell number (MCF-7 cells; 100 μM RES, 48 h): 1.08 ± 0.11 × 10^6 cells
Emax at 5 µM (MCF-7 cells; Homo sapiens, MCF7, 48 h, read-out: stimulation of cellular growth (maximal effect)): 21.2 ± 3.3%
IC50 (MCF-7 cells; Homo sapiens, MCF7, MCF-7, 48 h, steroid-deprived, read-out: IC50 (inhibition of cell growth)): 37.4 ± 14.5 µM
inhibition at 10 µM ([2]; read-out: inhibition of E1 sulfation): 91.6 ± 1.1%
inhibition at 10 µM ([2]; read-out: inhibition of E2 sulfation): 90 ± 1%
increase in AD concentrations [2, 3]: 141.0%
increase in T levels [2, 3]: 305.9%
reduction of mean formation of DHEA-S [2, 3]: 87.7%
increase in unconjugated E2 concentrations [2, 4]: 101.6%
reduction of mean formation of E1-S [2, 4]: 99.1%
reduction of mean formation of E2-G [2, 4]: 89.7%
reduction of mean formation of E2-S [2, 4]: 98.8%
mode of inhibition of conjugate formation ([2]; MCF-7, Lineweaver–Burk and Dixon plots, all conjugates): non-competitive
Ki ([2]; read-out: Ki, inhibition of DHEA-S formation, DHEA precursor): 13.2 ± 0.2 µM
Ki ([2]; read-out: Ki, inhibition of E1-S formation, E1 precursor): 0.94 ± 0.03 µM
Ki ([2]; read-out: Ki, inhibition of E2-G formation, E1 precursor): 7.92 ± 0.24 µM
Ki ([2]; read-out: Ki, inhibition of E2-S formation, E1 precursor): 0.73 ± 0.07 µM
